According to patent US20230078764A1 (Yumanity Therapeutics, Inc., priority 2019, published 2023):
Read-outs that look alike come from different tables or passages of the source.

Key:
human SCD5 = target: T1, human SCD5 (Homo sapiens, UniProt Q86SK9); assay: Growth inhibition of yeast strain expressing human SCD5 as sole desaturase (OLE1 deleted), OD600 readout; assay type: cell-based
T1 construct: expressed in transfected cells; host or cells: yeast strain with OLE1 deleted, plasmid-borne human SCD5 (selected in SD-Ura)
T1 sequence (Q86SK9 1-330): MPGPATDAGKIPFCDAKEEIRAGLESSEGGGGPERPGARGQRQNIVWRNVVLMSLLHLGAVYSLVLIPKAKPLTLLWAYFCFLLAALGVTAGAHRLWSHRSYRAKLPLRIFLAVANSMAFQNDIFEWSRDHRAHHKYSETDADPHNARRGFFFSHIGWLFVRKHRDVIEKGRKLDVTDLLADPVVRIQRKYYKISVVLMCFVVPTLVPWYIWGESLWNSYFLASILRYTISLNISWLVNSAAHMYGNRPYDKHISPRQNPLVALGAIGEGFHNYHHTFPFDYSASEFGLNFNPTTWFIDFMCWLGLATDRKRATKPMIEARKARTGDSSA

human SCD1 = target: T2, human SCD1 (Homo sapiens, UniProt O00767); assay: Growth inhibition of yeast strain expressing human SCD1 as sole desaturase (OLE1 deleted), OD600 readout; assay type: cell-based
T2 construct: expressed in transfected cells; host or cells: yeast strain with OLE1 deleted, plasmid-borne human SCD1 (selected in SD-Ura)
T2 sequence (O00767 1-359): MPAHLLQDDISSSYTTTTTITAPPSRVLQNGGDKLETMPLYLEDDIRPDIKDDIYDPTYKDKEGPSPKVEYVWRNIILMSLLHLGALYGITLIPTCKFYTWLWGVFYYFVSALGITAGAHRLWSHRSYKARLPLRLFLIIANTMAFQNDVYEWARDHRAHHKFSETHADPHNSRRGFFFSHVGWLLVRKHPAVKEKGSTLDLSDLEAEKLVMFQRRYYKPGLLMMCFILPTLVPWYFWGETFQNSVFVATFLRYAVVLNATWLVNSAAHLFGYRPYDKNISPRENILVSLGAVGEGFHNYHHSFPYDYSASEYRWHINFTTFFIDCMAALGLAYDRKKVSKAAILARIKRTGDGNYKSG

[1] = yeast strain expressing human SCD5 as sole desaturase, growth (OD600) after 40 h at 30° C., read-out: SCD5 IC50
[2] = yeast strain expressing human SCD1 as sole desaturase, growth (OD600) after 40 h at 30° C., read-out: SCD1 IC50

SMILES	IC50 (human SCD5; [1]) [µM]	IC50 (human SCD1; [2]) [µM]	IC50 (human SCD5; SCD5 IC50) [µM]	IC50 (human SCD1; SCD1 IC50) [µM]
O=C(Nc1ccc(Cc2cccc(Cl)c2)cn1)c1ccc(CO)nn1 [Compound 122, N-(5-(3-chlorobenzyl)pyridin-2-yl)-6-(hydroxymethyl)pyridazine-3-carboxamide]	0.01	0.01	–	–
Cc1cc(NC(=O)C2=NN(C)C(=O)CC2)ncc1Cc1cccc(Cl)c1 [Compound 123, N-(5-(3-chlorobenzyl)-4-methylpyridin-2-yl)-1-methyl-6-oxo-1,4,5,6-tetrahydropyridazine-3-carboxamide]	8.94	> 45	–	–
CN1N=C(C(=O)Nc2ncc(Cc3cccc(Cl)c3)cc2F)CCC1=O [Compound 124, N-(5-(3-chlorobenzyl)-3-fluoropyridin-2-yl)-1-methyl-6-oxo-1,4,5,6-tetrahydropyridazine-3-carboxamide]	10	> 45	–	–
O=C(Nc1ccc(CO)nc1)c1ccc(Cc2cccc(F)c2)cn1 [Compound 125, 5-(3-Fluorobenzyl)-N-(6-(hydroxymethyl)pyridin-3-yl)picolinamide]	0.01	0.01	–	–
Cc1ccc(NC(=O)c2ccc(Cc3cccc(F)c3)cn2)nn1 [Compound 126, 5-(3-Fluorobenzyl)-N-(6-methylpyridazin-3-yl)picolinamide]	0.23	0.83	–	–
COc1cc(C(=O)Nc2ccc(Cc3cccc(F)c3)cn2)nn(C)c1=O [Compound 127, N-(5-(3-fluorobenzyl)pyridin-2-yl)-5-methoxy-1-methyl-6-oxo-1,6-dihydropyridazine-3-carboxamide]	0.22	3.12	–	–
Cn1cc(C(=O)Nc2ccc(Cc3cccc(Cl)c3)cn2)cc(F)c1=O [Compound 128, N-(5-(3-chlorobenzyl)pyridin-2-yl)-5-fluoro-1-methyl-6-oxo-1,6-dihydropyridine-3-carboxamide]	0.01	0.18	–	–
N#Cc1ccc(C(=O)Nc2ccc(Cc3cccc(Cl)c3)cn2)nc1 [Compound 129, N-(5-(3-chlorobenzyl)pyridin-2-yl)-5-cyanopicolinamide]	0.05	> 45	–	–
N#Cc1ccc(C(=O)Nc2ccc(Cc3ccc(F)c(Cl)c3)cn2)nc1 [Compound 130, N-(5-(3-chloro-4-fluorobenzyl)pyridin-2-yl)-5-cyanopicolinamide]	0.04	> 45	–	–
O=C(Nc1ccc(Cc2cccc(Cl)c2)cn1)c1ccc(CO)nc1 [Compound 131, N-(5-(3-chlorobenzyl)pyridin-2-yl)-6-(hydroxymethyl)nicotinamide]	0.01	0.01	–	–
O=C(Nc1ccc(CO)nc1)c1ccc(Cc2cccc(Cl)c2)cn1 [Compound 132, 5-(3-Chlorobenzyl)-N-(6-(hydroxymethyl)pyridin-3-yl)picolinamide]	0.01	0.01	–	–
N#Cc1ccc(C(=O)Nc2ccc(Cc3cccc(F)c3)cn2)cc1 [Compound 133, 4-cyano-N-(5-(3-fluorobenzyl)pyridin-2-yl)benzamide]	0.23	> 45	–	–
Cc1nccc(C(=O)Nc2ccc(Cc3cc(F)cc(C#N)c3)cn2)n1 [Compound 134, N-(5-(3-cyano-5-fluorobenzyl)pyridin-2-yl)-2-methylpyrimidine-4-carboxamide]	0.01	0.09	–	–
COCc1ccc(C(=O)Nc2ccc(Cc3cccc(Cl)c3)cn2)cn1 [Compound 136, N-(5-(3-chlorobenzyl)pyridin-2-yl)-6-(methoxymethyl)nicotinamide]	0.49	1.26	–	–
O=C(Nc1ccc(Cc2cccc(Cl)c2)cn1)c1ccc(CO)cn1 [Compound 137, N-(5-(3-chlorobenzyl)pyridin-2-yl)-5-(hydroxymethyl)picolinamide]	–	–	0.01	0.01
Cc1cnc(C(=O)Nc2ccc(Cc3ccc(F)c(Cl)c3)cn2)cn1 [Compound 138, N-(5-(3-chloro-4-fluorobenzyl)pyridin-2-yl)-5-methylpyrazine-2-carboxamide]	0.08	0.55	–	–
Cc1cnc(C(=O)Nc2ccc(Cc3cccc(F)c3)cn2)nc1 [Compound 139, N-(5-(3-fluorobenzyl)pyridin-2-yl)-5-methylpyrimidine-2-carboxamide]	0.06	4.93	–	–
Cn1cccc(C(=O)Nc2ccc(Cc3cccc(F)c3)cn2)c1=O [Compound 140, N-(5-(3-fluorobenzyl)pyridin-2-yl)-1-methyl-2-oxo-1,2-dihydropyridine-3-carboxamide]	0.01	0.29	–	–

SMILES	IC50 (human SCD5; [1]) [µM]	IC50 (human SCD1; [2]) [µM]	IC50 (human SCD5; SCD5 IC50) [µM]	IC50 (human SCD1; SCD1 IC50) [µM]
Cc1ncc(C(=O)Nc2ccc(Cc3cccc(F)c3)cn2)cn1 [Compound 141, N-(5-(3-fluorobenzyl)pyridin-2-yl)-2-methylpyrimidine-5-carboxamide]	0.16	> 45	–	–
O=C(Nc1ccc(Cc2cccc(F)c2)cn1)c1ccnnc1 [Compound 143, N-(5-(3-fluorobenzyl)pyridin-2-yl)pyridazine-4-carboxamide]	0.37	0.51	–	–
Cc1nccc(C(=O)Nc2ccc(Cc3cccc(F)c3)cn2)n1 [Compound 144, N-(5-(3-fluorobenzyl)pyridin-2-yl)-2-methylpyrimidine-4-carboxamide]	0.01	0.01	–	–
Cc1ccc(C(=O)Nc2ccc(Cc3cccc(F)c3)cn2)nn1 [Compound 145, N-(5-(3-fluorobenzyl)pyridin-2-yl)-6-methylpyridazine-3-carboxamide]	0.1	1.71	–	–
O=C(Nc1ccc(Cc2cccc(Cl)c2)cn1)c1ccc2nncn2c1 [Compound 146, N-(5-(3-chlorobenzyl)pyridin-2-yl)-[1,2,4]triazolo[4,3-a]pyridine-6-carboxamide]	0.01	0.19	–	–
O=C(Nc1ccc(Cc2ccc(F)c(F)c2)cn1)c1ccc2nncn2c1 [Compound 147, N-(5-(3,4-difluorobenzyl)pyridin-2-yl)-[1,2,4]triazolo[4,3-a]pyridine-6-carboxamide]	0.04	0.31	–	–
O=C(Nc1ccc(Cc2ccc(F)c(Cl)c2)cn1)c1ccc2nncn2c1 [Compound 148, N-(5-(3-chloro-4-fluorobenzyl)pyridin-2-yl)-[1,2,4]triazolo[4,3-a]pyridine-6-carboxamide]	0.01	0.01	–	–
O=C(Nc1ccc(Cc2cc(F)cc(F)c2)cn1)c1ccc2nncn2c1 [Compound 149, N-(5-(3,5-difluorobenzyl)pyridin-2-yl)-[1,2,4]triazolo[4,3-a]pyridine-6-carboxamide]	0.01	0.23	–	–
O=C(Nc1ccc2nncn2c1)c1ccc(Cc2cccc(Cl)c2)cn1 [Compound 150, N-([1,2,4]triazolo[4,3-a]pyridin-6-yl)-5-(3-chlorobenzyl)picolinamide trifluoroacetic Acid]	0.01	0.02	–	–
O=C(Nc1ccc(Cc2cccc(F)c2)cn1)c1ccc2nncn2c1 [Compound 151, N-(5-(3-fluorobenzyl)pyridin-2-yl)-[1,2,4]triazolo[4,3-a]pyridine-6-carboxamide]	0.08	1.34	–	–
Cn1ncc2cc(-c3ccc(Cc4cccc(F)c4)cn3)ccc21 [Compound 153, 5-(5-(3-fluorobenzyl)pyridin-2-yl)-1-methyl-1H-indazole]	7.6	5.3	–	–
O=C(Nc1ccc(Cc2cccc(F)c2)cn1)c1ccc2nccn2c1 [Compound 154, N-(5-(3-fluorobenzyl)pyridin-2-yl)imidazo[1,2-a]pyridine-6-carboxamide]	14.6	> 45	–	–
O=C(Nc1ccc(Cc2cccc(Cl)c2)cn1)c1ccc2nccn2c1 [Compound 155, N-(5-(3-chlorobenzyl)pyridin-2-yl)imidazo[1,2-a]pyridine-6-carboxamide]	7.8	24.7	–	–
CN1N=C(C(=O)Nc2ccc(Oc3ccccc3Cl)cn2)CCC1=O [Compound 156, N-(5-(2-chlorophenoxy)pyridin-2-yl)-1-methyl-6-oxo-1,4,5,6-tetrahydropyridazine-3-carboxamide]	28.1	> 45	–	–
CN1N=C(C(=O)Nc2ccc(Oc3cccc(Cl)c3)cn2)CCC1=O [Compound 157, N-(5-(3-chlorophenoxy)pyridin-2-yl)-1-methyl-6-oxo-1,4,5,6-tetrahydropyridazine-3-carboxamide]	6.65	> 45	–	–
CN1N=C(C(=O)Nc2ccc(Oc3ccc(Cl)cc3)cc2)CCC1=O [Compound 158, N-(4-(4-chlorophenoxy)phenyl)-1-methyl-6-oxo-1,4,5,6-tetrahydropyridazine-3-carboxamide]	6.19	10.5	–	–
CN1N=C(C(=O)Nc2ccc(Oc3cccc(Cl)c3)cc2)CCC1=O [Compound 159, N-(4-(3-chlorophenoxy)phenyl)-1-methyl-6-oxo-1,4,5,6-tetrahydropyridazine-3-carboxamide]	8.04	> 45	–	–
